In brackets after ≈: the same amount, converted by molar mass. Several values for one entry are separate records, joined by “and”; a condition that tells them apart may be missing. Equal entries are not always repeated. One block for each compound: values may come before it.
Columns and labels:
Format in all cases: functional
Enterococcus = assay: Antibacterial activity against vancomycin-resistant Enterococcus assessed as inhibition of bacterial growth by CLSI protocol based method
Staphylococcus aureus [1] = assay: Antibacterial activity against methicillin-resistant Staphylococcus aureus assessed as inhibition of bacterial growth by CLSI protocol based method
Staphylococcus aureus [2] = assay: Antibacterial activity against Staphylococcus aureus ATCC 29213 assessed as inhibition of bacterial growth by CLSI protocol based method
Bacillus subtilis [3] = assay: Antibacterial activity against Bacillus subtilis assessed as inhibition of bacterial growth measured per 100 uL incubated for 24 hrs by agar well diffusion method
Candida albicans = assay: Antifungal activity against Candida albicans assessed as inhibition of fungal growth incubated measured per 100 uL incubated for 24 hrs by agar well diffusion method
Pseudomonas aeruginosa [4] = assay: Antibacterial activity against Pseudomonas aeruginosa assessed as inhibition of bacterial growth measured per 100 uL incubated for 24 hrs by agar well diffusion method
Escherichia coli [5] = assay: Antibacterial activity against Escherichia coli assessed as inhibition of bacterial growth measured per 100 uL incubated for 24 hrs by agar well diffusion method
Staphylococcus aureus [6] = assay: Antibacterial activity against Staphylococcus aureus assessed as inhibition of bacterial growth measured per 100 uL incubated for 24 hrs by agar well diffusion method
Saccharomyces cerevisiae = assay: Antifungal activity against Saccharomyces cerevisiae assessed as inhibition of fungal growth incubated measured per 100 uL incubated for 24 hrs by agar well diffusion method
Escherichia coli [7] = assay: Antibacterial activity against Escherichia coli NCIM 2065 assessed as inhibition of bacterial growth incubated for 24 hrs by serial dilution method
Pseudomonas aeruginosa [8] = assay: Antibacterial activity against Pseudomonas aeruginosa NCIM 5210 assessed as inhibition of bacterial growth incubated for 24 hrs by serial dilution method
Enterococcus faecalis [9] = assay: Antibacterial activity against Streptococcus faecalis NCIM 2080 assessed as inhibition of bacterial growth incubated for 24 hrs by serial dilution method
Staphylococcus aureus [10] = assay: Antibacterial activity against Staphylococcus aureus NCIM 5257 assessed as inhibition of bacterial growth incubated for 24 hrs by serial broth dilution method
Bacillus subtilis [11] = assay: Antibacterial activity against Bacillus subtilis NCIM 2097 assessed as inhibition of bacterial growth incubated for 24 hrs by serial broth dilution method
Klebsiella pneumoniae = assay: Antibacterial activity against Klebsiella pneumoniae NCIM 5289 assessed as inhibition of bacterial growth incubated for 24 hrs by serial dilution method
[12] = tested on: Staphylococcus epidermidis; assay: Antibacterial activity against Staphylococcus epidermidis ATCC 12228 assessed as inhibition of bacterial growth incubated for 18 to 24 hrs by CLSI protocol based Tryptic soy broth method; conditions: time 18-24 hrs
Staphylococcus aureus [13] = assay: Antibacterial activity against methicillin-resistant Staphylococcus aureus assessed as inhibition of bacterial growth incubated for 18 to 24 hrs by CLSI protocol based Tryptic soy broth method; conditions: time 18-24 hrs
Enterococcus faecalis [14] = assay: Antibacterial activity against Enterococcus faecalis ATCC 29212 assessed as inhibition of bacterial growth incubated for 18 to 24 hrs by CLSI protocol based Tryptic soy broth method; conditions: time 18-24 hrs
Staphylococcus aureus [15] = assay: Antibacterial activity against Staphylococcus aureus ATCC 25923 assessed as inhibition of bacterial growth incubated for 18 to 24 hrs by CLSI protocol based Tryptic soy broth method; conditions: time 18-24 hrs

SMILES: CC(=O)NC[C@H]1CN(c2ccc(N3CCN(/N=C/c4ncc(N)n4C)CC3)c(F)c2)C(=O)O1
MIC (Enterococcus): > 8 µg/mL
MIC (Staphylococcus aureus [1]): > 8 µg/mL
MIC (Staphylococcus aureus [2]): > 8 µg/mL

MIC (Bacillus subtilis [3]): 12.5 µg
MIC (Candida albicans): 12.5 µg
MIC (Pseudomonas aeruginosa [4]): 12.5 µg
MIC (Escherichia coli [5]): 12.5 µg
MIC (Staphylococcus aureus [6]): 12.5 µg
MIC (Saccharomyces cerevisiae): 12.5 µg
SMILES: O=C1NC(Cc2ccc(Nc3nc(-c4ccc(F)cc4)cs3)cc2)CO1 (stereo not given)

MIC (Escherichia coli [7]): 3.12 µg/mL (≈ 7.52 µM)
MIC (Pseudomonas aeruginosa [8]): 3.12 µg/mL (≈ 7.52 µM)
MIC (Enterococcus faecalis [9]): 3.12 µg/mL (≈ 7.52 µM)
MIC (Staphylococcus aureus [10]): 3.12 µg/mL (≈ 7.52 µM)
MIC (Bacillus subtilis [11]): 3.12 µg/mL (≈ 7.52 µM)
MIC (Klebsiella pneumoniae): 3.12 µg/mL (≈ 7.52 µM)
SMILES: O=C(/C=C/c1ccccc1O)c1ccc(-c2ccc(N3C[C@H](CO)OC3=O)cc2)cc1

SMILES: Cc1nc(C)c(COc2ccc(N3C[C@H](Cn4ccnn4)OC3=O)cc2)nc1C
MIC [12]: 64 µg/mL (≈ 162 µM)
MIC (Staphylococcus aureus [13]): 32 µg/mL (≈ 81.1 µM)
MIC (Enterococcus faecalis [14]): 128 µg/mL (≈ 325 µM)
MIC (Staphylococcus aureus [15]): 64 µg/mL (≈ 162 µM)

MIC (Bacillus subtilis [3]): 25 µg
MIC (Candida albicans): 12.5 µg
MIC (Pseudomonas aeruginosa [4]): 6.25 µg
MIC (Escherichia coli [5]): 12.5 µg
MIC (Staphylococcus aureus [6]): 6.25 µg
MIC (Saccharomyces cerevisiae; 24 h): 12.5 µg and 6.25 µg
SMILES: O=C1NC(Cc2ccc(Nc3nc(-c4c(O)oc(O)cc4=O)cs3)cc2)CO1 (stereo not given)

MIC (Bacillus subtilis [3]): 12.5 µg
MIC (Candida albicans): 12.5 µg
MIC (Pseudomonas aeruginosa [4]): 12.5 µg
MIC (Escherichia coli [5]): 12.5 µg
MIC (Staphylococcus aureus [6]): 12.5 µg
MIC (Saccharomyces cerevisiae): 12.5 µg
SMILES: O=C1NC(Cc2ccc(Nc3nc(-c4ccccc4F)cs3)cc2)CO1 (stereo not given)

SMILES: Cc1nc(C)c(COc2ccc(N3C[C@H](Cn4ccnn4)OC3=O)cc2F)nc1C
MIC [12]: 8 µg/mL (≈ 19.4 µM)
MIC (Staphylococcus aureus [13]): 4 µg/mL (≈ 9.7 µM)
MIC (Enterococcus faecalis [14]): 32 µg/mL (≈ 77.6 µM)
MIC (Staphylococcus aureus [15]): 8 µg/mL (≈ 19.4 µM)

SMILES: Cc1nc(C)c(COc2ccc(N3C[C@H](CNC(=O)CCl)OC3=O)cc2F)nc1C
MIC [12]: 4 µg/mL (≈ 9.16 µM)
MIC (Staphylococcus aureus [13]): 2 µg/mL (≈ 4.58 µM)
MIC (Enterococcus faecalis [14]): 8 µg/mL (≈ 18.3 µM)
MIC (Staphylococcus aureus [15]): 8 µg/mL (≈ 18.3 µM)

SMILES: Cc1nc(C)c(COc2ccc(N3C[C@H](CNC(=O)CCl)OC3=O)cc2)nc1C
MIC [12]: 8 µg/mL (≈ 19.1 µM)
MIC (Staphylococcus aureus [13]): 8 µg/mL (≈ 19.1 µM)
MIC (Enterococcus faecalis [14]): 16 µg/mL (≈ 38.2 µM)
MIC (Staphylococcus aureus [15]): 8 µg/mL (≈ 19.1 µM)

SMILES: COCC(=O)NC[C@H]1CN(c2ccc(OCc3nc(C)c(C)nc3C)c(F)c2)C(=O)O1
MIC [12]: 32 µg/mL (≈ 74 µM)
MIC (Staphylococcus aureus [13]): 32 µg/mL (≈ 74 µM)
MIC (Enterococcus faecalis [14]): 128 µg/mL (≈ 296 µM)
MIC (Staphylococcus aureus [15]): 128 µg/mL (≈ 296 µM)

MIC (Candida albicans): 6.25 µg
MIC (Escherichia coli [5]): 6.25 µg
SMILES: C[C@@H]1[C@H](O)[C@@H](C)/C=C/C=C/C=C/C=C/C=C/C=C/C=C/[C@H](O[C@@H]2O[C@H](C)[C@@H](O)[C@H](N)[C@@H]2O)C[C@@H]2O[C@](O)(C[C@@H](O)C[C@@H](O)[C@H](O)CC[C@@H](O)C[C@@H](O)CC(=O)O[C@H]1C)C[C@H](O)[C@H]2C(=O)O [AMPHOTERICIN B]

MIC (Escherichia coli [7]): 3.12 µg/mL (≈ 7.02 µM)
MIC (Pseudomonas aeruginosa [8]): 3.12 µg/mL (≈ 7.02 µM)
MIC (Enterococcus faecalis [9]): 3.12 µg/mL (≈ 7.02 µM)
MIC (Staphylococcus aureus [10]): 3.12 µg/mL (≈ 7.02 µM)
MIC (Bacillus subtilis [11]): 3.12 µg/mL (≈ 7.02 µM)
MIC (Klebsiella pneumoniae): 3.12 µg/mL (≈ 7.02 µM)
SMILES: COc1cc(/C=C/C(=O)c2ccc(-c3ccc(N4C[C@H](CO)OC4=O)cc3)cc2)ccc1O

SMILES: CC(=O)NC[C@H]1CN(c2ccc(N3CCN(/N=C(\C)Cn4c([N+](=O)[O-])cnc4C)CC3)c(F)c2)C(=O)O1
MIC (Enterococcus): 4 µg/mL (≈ 7.74 µM)
MIC (Staphylococcus aureus [1]): 1 µg/mL (≈ 1.94 µM)
MIC (Staphylococcus aureus [2]): 1 µg/mL (≈ 1.94 µM)

MIC (Bacillus subtilis [3]): 6.25 µg
MIC (Staphylococcus aureus [6]): 6.25 µg
SMILES: O=C(O)c1cn(C2CC2)c2cc(N3CCNCC3)c(F)cc2c1=O [CIPROFLOXACIN]

SMILES: CC(=O)NC[C@H]1CN(c2ccc(N3CCN(/N=C/c4ccccc4[N+](=O)[O-])CC3)c(F)c2)C(=O)O1
MIC (Enterococcus): 2 µg/mL (≈ 4.13 µM)
MIC (Staphylococcus aureus [1]): 1 µg/mL (≈ 2.06 µM)
MIC (Staphylococcus aureus [2]): 2 µg/mL (≈ 4.13 µM)

SMILES: Cc1nc(C)c(COc2ccc(N3C[C@H](CNC(=O)C(Cl)Cl)OC3=O)cc2)nc1C
MIC [12]: 8 µg/mL (≈ 17.6 µM)
MIC (Staphylococcus aureus [13]): 4 µg/mL (≈ 8.82 µM)
MIC (Enterococcus faecalis [14]): 16 µg/mL (≈ 35.3 µM)
MIC (Staphylococcus aureus [15]): 8 µg/mL (≈ 17.6 µM)

SMILES: CC(=O)NC[C@H]1CN(c2ccc(OCc3nc(C)c(C)nc3C)cc2)C(=O)O1
MIC [12]: 16 µg/mL (≈ 41.6 µM)
MIC (Staphylococcus aureus [13]): 8 µg/mL (≈ 20.8 µM)
MIC (Enterococcus faecalis [14]): 32 µg/mL (≈ 83.2 µM)
MIC (Staphylococcus aureus [15]): 16 µg/mL (≈ 41.6 µM)

SMILES: Cc1nc(C)c(COc2ccc(N3C[C@H](CNC(=O)c4ccco4)OC3=O)cc2F)nc1C
MIC [12]: 16 µg/mL (≈ 35.2 µM)
MIC (Staphylococcus aureus [13]): 32 µg/mL (≈ 70.4 µM)
MIC (Enterococcus faecalis [14]): 128 µg/mL (≈ 282 µM)
MIC (Staphylococcus aureus [15]): 32 µg/mL (≈ 70.4 µM)
